The values below come from ChEMBL document CHEMBL1145977, “Synthesis and dopamine receptor modulating activity of 3-substituted gamma-lactam peptidomimetics of L-prolyl-L-leucyl-glycinamide” (J Med Chem, 2003).

Molecules are shown by their SMILES.

Assay type in all cases: functional
For test [1], the target named is T1, Dopamine receptor (Rattus norvegicus) (UniProt P25115+P19020+P30729+P18901+P61169). Nature of the test: Dopamine receptor modulating activity of compound was evaluated by rat nigrostriatal 6-hydroxydopamine lesion rotation model at dose of 1 ug/kg given intraperitoneally.
The target of test [2] is T1, Dopamine receptor (Rattus norvegicus). Nature of the test: Dopamine receptor modulating activity of compound was evaluated by rat nigrostriatal 6-hydroxydopamine lesion rotation model at dose of 0.1 ug/kg given intraperitoneally.
The species entered for test [3] is Bos taurus. Kind of test: Percent enhancement of [3H]NPE binding to bovine striatal membranes at 100 nM concentration. As to conditions: Striatum, Membrane.

On to `CC(C)C[C@@]1(NC(=O)[C@@H]2CCCN2)C[C@H]2SC[C@H](C(N)=O)N2C1=O`, for which, in test [1], the Enhancement is 44%. With `NC(=O)[C@H]1CS[C@@H]2C[C@@H](NC(=O)[C@@H]3CCCN3)C(=O)N12`, in test [2], the Enhancement came out at 23%. In the case of `NC(=O)[C@H]1CS[C@@H]2C[C@@](Cc3ccccc3)(NC(=O)[C@@H]3CCCN3)C(=O)N12`, the Enhancement in test [1] was 30%. Turning to `NC(=O)CN1CC[C@@H](NC(=O)[C@@H]2CCCN2)C1=O`, the Enhancement in test [3] was determined as 36%. Turning to `NC(=O)CN1CC[C@@](Cc2ccccc2)(NC(=O)[C@@H]2CCCN2)C1=O`, the Enhancement in test [3] worked out at 116%. Consider `CCCC[C@@]1(NC(=O)[C@@H]2CCCN2)CCN(CC(N)=O)C1=O`, for which the Enhancement in test [3] is 89%. As to `CC(C)C[C@@]1(NC(=O)[C@@H]2CCCN2)CCN(CC(N)=O)C1=O`, the Enhancement in test [3] worked out at 59%. As to `CCCC[C@@]1(NC(=O)[C@@H]2CCCN2)C[C@H]2SC[C@H](C(N)=O)N2C1=O`, in test [2], the Enhancement was determined as 56%.
